Results from US7495105B2, “Non-racemic mixtures of (S) and (R) enantiomers of N-(2,6-dimethylphenyl)-1-propyl-2-piperidinocarboxamide; related processes and pharmaceutical compositions” (Cristalia Produtos Quimicos Farmaceuticos Ltda., priority 2001, dated 2009).
Marks after values point to notes of the source that are not given here.

How the values were obtained:
[1] = test system: Muscular Activity of the Gastrocnemic Muscle of the Rat; experiment: Study in motor nervous conduction: gastrocnemius muscle shocks induced by electrical stimulation of the sciatic nerve; format: in vivo; settings: for IC50 (%) - concentration that inhibits 50% of the amplitude of muscular shocks: 0.1 ml applied to sciatic nerve, stimulation 0.2 Hz, anesthetized Wistar rats; for Power relative to S (−) ropivacaine: from IC50 of gastrocnemic muscle shocks
Experimental: Wistar male rats, weighing from 180 up to 250 g were under anesthesia with sodium pentobarbital (50 mg.kg^1) via i.p. After being submitted to tracheotomy and mechanically ventilated (Harvad Apparatus mod. 681), the animals were positioned on a surgical table (C. F. Palmer), on ventral decubital, and the four paws were fixed onto the surgical table. In the posterior face and near the back paw, the sciatic nerve was carefully dissected on both paws. A pair of platinum electrodes was fixed on the portion near the nerve and connected to a stimulator Grass mod.S88. Thereafter, the Achilles tendon was isolated and fixed to the isometric tension transducer (Grass FT03) by means of a metallic rod. […] 7). The body temperature was constant during the experiment. After stabilization of the preparation, the muscular shocks were registered in the absence (salty) and in the presence of increasing doses of LAs added in the proximity of the nerve. For each test, the anesthetic that socked the nerve was of 0.1 ml. The solutions were solved in physiologic serum at 0.9%, currently the experiment is maintained at 37° C. temperature.
Particularly, in this register, ropivacaine (S(−)ropi) and the non-racemic mixture (25R:75S) were administered in the perineural region. It should be noted the difference in the power and speed action between the anesthetic. In this figure, gastrocnemic shocks of the muscle were induced by electrical stimulation of the sciatic nerve. The segment of this nerve situated in the distal portion to the stimulation electrodes was soaked with 0.1 ml ropivacaine or with the non-racemic mixture of ropivacaine […] in the concentration of 0.06%. The reduction of the amplitude of the muscular shocks is a function of the number of nervous motor fibers under effective action of the anesthetics.
The concentration that inhibits 50% of the amplitude of muscular shocks (IC50) seeks is used for comparative purposes of the power between anesthetics.

[2] = test system: isolated heart of the rat; experiment: Effects in the electrical activity (ECG) in isolated heart of the rat (Langendorff modified); settings: for cardiac toxicity (cardiotoxicity) in relation to ropivacaine: conclusion from isolated rat heart
Excerpt: In the experiments “in vitro”, adult male Wistar rats were used, weighing from 200 up to 350 g. The animals were slaughtered under anesthesia with ethyl ether. Thereafter, the heart was quickly removed and immersed, at room temperature, on Tyrode solution, composed in mM: NaCl, 120; KCl, 5.4; MgCl2, 1.2; CaCl2, 1.25; NaH2PO4, 2.0; NaHCO3, 27; Glucose, 11. The pH of this solution was adjusted to 7.4±0.02, under bubbling with carbogenic mixture (95% of O2 and 5% of CO2).
The heart was fixed, through the aorta, to a metallic tube and the latter was connected to a peristaltic pump (Milan^R). In order to maintain the feasibility of the preparation, the heart was perfused with a Tyrode solution at a flow of 8 ml.min^−1 maintained at 37° C. The drugs tested were diluted in the perfusion solution in the desired concentration. Thereafter, the heart was immersed in a recipient containing 150 ml of Tyrode solution maintained at 37° C. For registration of the ECG, three pipettes (electrodes), filled in with KCl 1M were positioned inside the chamber, the nearest possible to the heart. The electrical signals generated by the heart were amplified (Amplifier type 3A9) and registered in polygraph (Gould Brush mod.2400). After stabilization of the preparation, the experimental protocol with the infusion of ALs in crescent concentrations (0.1 a 10 μM), at intervals of 5 minutes between them, was started. The heart was perfused during 5 minutes for each concentration. Only one drug was tested for each heart.
The ECG was continuously registered in the absence (control) and in the presence of drugs for analysis. After the infusion of the last concentration, the preparation was washed during 30 minutes with the Tyrode solution without the AL, aiming to evaluate the reversibility of the effect of the drug.

[3] = spinal anesthesia; Gautier et al. 1999; cited from earlier work
[4] = 0.1 to 10 μM, 6 experiments, FIG. 4

| Structure (SMILES) | IC50 (%) - concentration that inhibits 50% of the amplitude of muscular shocks [1] | Power relative to S (−) ropivacaine [1] | power (motor blocking) greater in comparison with ropivacaine ([1]; motor blocking, versus pure ropivacaine) [%] | effect on CF (cardiac frequency) [2, 4] | effect on PR interval [2, 4] | cardiac toxicity (cardiotoxicity) in relation to ropivacaine [2] | effect on ECG of isolated heart ([2]; perfusion with 1 μM) | effect on PR interval ([2]; even in the concentration of 10 μM) | less potent than racemic bupivacaine [3] |
| --- | --- | --- | --- | --- | --- | --- | --- | --- | --- |
| CCCN1CCCCC1C(=O)Nc1c(C)cccc1C (racemic) [RS (±) Ropi, (R,S)-N-(2,6-dimethylphenyl)-1-propyl-2-piperidinocarboxamide] | 0.036* % | 1.94* | ~90 | greater depressors effect of CF | increase in PR interval | significantly higher cardiotoxicity | – | – | – |
| CCCN1CCCC[C@@H]1C(=O)Nc1c(C)cccc1C [R (+) Ropi, (R)-N-(2,6-dimethylphenyl)-1-propyl-2-piperidinocarboxamide] | 0.043* % | 1.63* | – | greater depressors effect of CF | increase in PR interval | significantly higher cardiotoxicity | important blocking of the cardiac vessel | – | – |
| CCCN1CCCC[C@H]1C(=O)Nc1c(C)cccc1C [S (−) Ropi, (S)-N-(2,6-dimethylphenyl)-1-propyl-2-piperidinocarboxamide] | 0.070% | 1.0 | – | – | – | – | – | do not alter the PR interval | about 50% |
